The target in the first assay is unphosphorylated-BTK kinase domain (UP-BTK), GST-tagged human BTK (389-659aa) (Homo sapiens (Human), UniProt Q06187). In words: BTK Kinase Lanthascreen Binding Assay. The settings on record: compound, 50 nM Tracer 236, 2 nM anti-GST antibody, 60 minutes; pIC50 = negative log of the IC50 in molar. The procedure:
BTK Kinase Lanthascreen Binding Assay:
A BTK kinase lanthascreen binding assay monitors compound binding to unphosphorylated-BTK kinase domain (UP-BTK), by competing with a fluorescent labeled tracer. […] Data were analyzed using Xlfit™ version 5.3 from ID Business Solutions (Guildford), Microsoft Excel add-in. pIC50 refers to the negative log of the IC50 in molar.
(In general: Time-resolved FRET reads energy transfer from a long-lived donor to a nearby acceptor.)
Chain of unphosphorylated-BTK kinase domain (UP-BTK), GST-tagged human BTK (389-659aa) (Q06187 389-659): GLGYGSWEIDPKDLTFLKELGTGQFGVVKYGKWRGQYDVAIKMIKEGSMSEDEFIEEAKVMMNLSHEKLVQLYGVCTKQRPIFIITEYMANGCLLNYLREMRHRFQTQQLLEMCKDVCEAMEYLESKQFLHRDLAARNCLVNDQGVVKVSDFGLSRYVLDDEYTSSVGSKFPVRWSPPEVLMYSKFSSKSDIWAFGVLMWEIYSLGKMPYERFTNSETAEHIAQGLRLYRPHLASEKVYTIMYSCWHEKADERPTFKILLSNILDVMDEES
`CNC1CCC(NC(=O)c2sc3nccc4c3c2NC(=O)N4c2ccc(Oc3ccccc3)cc2C)CC1` (centres unmarked) [Example 63, 5-(2-Methyl-4-phenoxyphenyl)-N-(4-(methylamino)cyclohexyl)-4-oxo-4,5-dihydro-3H-1-thia-3,5,8-triazaacenaphthylene-2-carboxamide]: the “BTK_I_binding pIC50” value was 6.85.
As for `CC(=O)N[C@H]1CC[C@@H](NC(=O)c2sc3nccc4c3c2NC(=O)N4c2ccc(Oc3ccccc3)cc2C)CC1` [Example 64, N-((1S,4S)-4-Acetamidocyclohexyl)-5-(2-methyl-4-phenoxyphenyl)-4-oxo-4,5-dihydro-3H-1-thia-3,5,8-triazaacenaphthylene-2-carboxamide], the “BTK_I_binding pIC50” value turned out to be 7.28.
On the same count and under the same terms, in the case of `CCC(=O)N[C@H]1CC[C@@H](NC(=O)c2sc3nccc4c3c2NC(=O)N4c2ccc(Oc3ccccc3)cc2C)CC1` [Example 65, 5-(2-Methyl-4-phenoxyphenyl)-4-oxo-N-((1S,4S)-4-propionamidocyclohexyl)-4,5-dihydro-3H-1-thia-3,5,8-triazaacenaphthylene-2-carboxamide] it was 7.20; in that of `Cc1cc(Oc2ccccc2)ccc1N1C(=O)Nc2c(C(=O)N[C@H]3CC[C@@H](N(C)C)CC3)sc3nccc1c23` [Example 66, N-((1S,4S)-4-(Dimethylamino)cyclohexyl)-5-(2-methyl-4-phenoxyphenyl)-4-oxo-4,5-dihydro-3H-1-thia-3,5,8-triazaacenaphthylene-2-carboxamide], 6.56; in that of `C=CC(=O)N[C@@H]1CC[C@H](NC(=O)c2sc3nccc4c3c2NC(=O)N4c2ccc(Oc3ccccc3)cc2C)C1` [Example 68, N-((1S,3R)-3-acrylamidocyclopentyl)-5-(2-methyl-4-phenoxyphenyl)-4-oxo-4,5-dihydro-3H-1-thia-3,5,8-triazaacenaphthylene-2-carboxamide], 7.78.
The same measure, in the same setting: in the case of `CCC(=O)N[C@@H]1CC[C@H](NC(=O)c2sc3nccc4c3c2NC(=O)N4c2ccc(Oc3ccccc3)cc2C)C1` [Example 69, 5-(2-Methyl-4-phenoxyphenyl)-4-oxo-N-((1S,3R)-3-propionamidocyclopentyl)-4,5-dihydro-3H-1-thia-3,5,8-triazaacenaphthylene-2-carboxamide] it was 7.73; in that of `CC(=O)N[C@@H]1CC[C@H](NC(=O)c2sc3nccc4c3c2NC(=O)N4c2ccc(Oc3ccccc3)cc2C)C1` [Example 70, N-((1S,3R)-3-Acetamidocyclopentyl)-5-(2-methyl-4-phenoxyphenyl)-4-oxo-4,5-dihydro-3H-1-thia-3,5,8-triazaacenaphthylene-2-carboxamide], 7.69.
The same measure, in the same setting: for `Cc1cc(Oc2ccccc2)ccc1N1C(=O)Nc2c(C(=O)N[C@H]3CC[C@@H](NC(=O)CN(C)C)C3)sc3nccc1c23` [Example 71, N-((1S,3R)-3-(2-(Dimethylamino)acetamido)cyclopentyl)-5-(2-methyl-4-phenoxyphenyl)-4-oxo-4,5-dihydro-3H-1-thia-3,5,8-triazaacenaphthylene-2-carboxamide] the value was 7.38; for `CNCC(=O)N[C@@H]1CC[C@H](NC(=O)c2sc3nccc4c3c2NC(=O)N4c2ccc(Oc3ccccc3)cc2C)C1` [Example 72, 5-(2-Methyl-4-phenoxyphenyl)-N-((1S,3R)-3-(2-(methylamino)acetamido)cyclopentyl)-4-oxo-4,5-dihydro-3H-1-thia-3,5,8-triazaacenaphthylene-2-carboxamide], 7.02; for `Cc1cc(Oc2ccccc2)ccc1N1C(=O)Nc2c(C(=O)N[C@H]3CC[C@@H](N(C)C)C3)sc3nccc1c23` [Example 73, N-((1S,3R)-3-(Dimethylamino)cyclopentyl)-5-(2-methyl-4-phenoxyphenyl)-4-oxo-4,5-dihydro-3H-1-thia-3,5,8-triazaacenaphthylene-2-carboxamide], 7.00.
As for `Cc1cc(Oc2ccccc2)ccc1N1C(=O)Nc2c(C(=O)N[C@H]3CC[C@@H](O)C3)sc3nccc1c23` [Example 74, N-((1S,3R)-3-Hydroxycyclopentyl)-5-(2-methyl-4-phenoxyphenyl)-4-oxo-4,5-dihydro-3H-1-thia-3,5,8-triazaacenaphthylene-2-carboxamide], the “BTK_I_binding pIC50” value came out at 7.07.
Turning to `Cc1cc(Oc2ccccc2)ccc1N1C(=O)Nc2c(C(=O)N[C@H]3CC[C@@H](NC(=O)CN)C3)sc3nccc1c23` [Example 75, N-((1S,3R)-3-(2-Aminoacetamido)cyclopentyl)-5-(2-methyl-4-phenoxyphenyl)-4-oxo-4,5-dihydro-3H-1-thia-3,5,8-triazaacenaphthylene-2-carboxamide], the “BTK_I_binding pIC50” value stood at 7.30.
Consider `Cc1cc(Oc2ccccc2)ccc1N1C(=O)Nc2c(C(=O)N[C@H]3CC[C@@H](N)C3)sc3nccc1c23` [Example 76, N-((1S,3R)-3-Aminocyclopentyl)-5-(2-methyl-4-phenoxyphenyl)-4-oxo-4,5-dihydro-3H-1-thia-3,5,8-triazaacenaphthylene-2-carboxamide], for which the “BTK_I_binding pIC50” value amounted to 6.88.
`Cc1cc(Oc2ccccc2)ccc1N1C(=O)Nc2c(C(=O)N[C@H]3CC[C@@H](NC(=O)/C=C/CN(C)C)CC3)sc3nccc1c23` [Example 77, N-((1S,4S)-4-((E)-4-(Dimethylamino)but-2-enamido)cyclohexyl)-5-(2-methyl-4-phenoxyphenyl)-4-oxo-4,5-dihydro-3H-1-thia-3,5,8-triazaacenaphthylene-2-carboxamide]: the “BTK_I_binding pIC50” value was determined as 6.61.
The same measure, in the same setting: in the case of `CNC/C=C/C(=O)N[C@H]1CC[C@@H](NC(=O)c2sc3nccc4c3c2NC(=O)N4c2ccc(Oc3ccccc3)cc2C)CC1` [Example 78, 5-(2-Methyl-4-phenoxyphenyl)-N-((1S,4S)-4-((E)-4-(methylamino)but-2-enamido)cyclohexyl)-4-oxo-4,5-dihydro-3H-1-thia-3,5,8-triazaacenaphthylene-2-carboxamide] it was 6.55.
Still for that read-out and setting: for `Cc1cc(Oc2ccccc2)ccc1N1C(=O)Nc2c(C(=O)N[C@H]3CC[C@@H](NC(=O)/C=C/CN)CC3)sc3nccc1c23` [Example 79, N-((1S,4S)-4-((E)-4-Aminobut-2-enamido)cyclohexyl)-5-(2-methyl-4-phenoxyphenyl)-4-oxo-4,5-dihydro-3H-1-thia-3,5,8-triazaacenaphthylene-2-carboxamide] the value was 6.47.
On to `Cc1cc(Oc2ccccc2)ccc1N1C(=O)Nc2c(C(=O)NC3CCCC3)sc3nccc1c23` [Example 81, N-Cyclopentyl-5-(*S)-(2-methyl-4-phenoxyphenyl)-4-oxo-4,5-dihydro-3H-1-thia-3,5,8-triazaacenaphthylene-2-carboxamide], for which the “BTK_I_binding pIC50” value stood at 7.03.
With `Cc1cc(Oc2ccccc2)ccc1N1C(=O)Nc2c(C(=O)NC3CCCC3)sc3nccc1c23` [Example 82, N-Cyclopentyl-5-(*R)-(2-methyl-4-phenoxyphenyl)-4-oxo-4,5-dihydro-3H-1-thia-3,5,8-triazaacenaphthylene-2-carboxamide], the “BTK_I_binding pIC50” value worked out at 5.35.
Still for that read-out and setting: for `N[C@@H]1CCC[C@H]1NC(=O)c1sc2nccc3c2c1NC(=O)N3c1ccc(Oc2ccccc2)cc1` [Example 91, N-((1R,2R)-2-Aminocyclopentyl)-4-oxo-5-(4-phenoxyphenyl)-4,5-dihydro-3H-1-thia-3,5,8-triazaacenaphthylene-2-carboxamide] the value was 7.31; for `N[C@H]1CCC[C@H]1NC(=O)c1sc2nccc3c2c1NC(=O)N3c1ccc(Oc2ccccc2)cc1` [Example 97, N-((1R,2S)-2-Aminocyclopentyl)-4-oxo-5-(4-phenoxyphenyl)-4,5-dihydro-3H-1-thia-3,5,8-triazaacenaphthylene-2-carboxamide], 7.70; for `N[C@@H]1CCC[C@@H]1NC(=O)c1sc2nccc3c2c1NC(=O)N3c1ccc(Oc2ccccc2)cc1` [Example 98, N-((1S,2R)-2-Aminocyclopentyl)-4-oxo-5-(4-phenoxyphenyl)-4,5-dihydro-3H-1-thia-3,5,8-triazaacenaphthylene-2-carboxamide], 6.10.
The same measure, in the same setting: in the case of `Cc1cc(Oc2ccccc2)ccc1N1C(=O)Nc2c(C(=O)N[C@H]3CC[C@@H](N(C)C)CC3)sc3nccc1c23` [Example 99, N-((1S,4S)-4-(Dimethylamino)cyclohexyl)-5-(*S)-(2-methyl-4-phenoxyphenyl)-4-oxo-4,5-dihydro-3H-1-thia-3,5,8-triazaacenaphthylene-2-carboxamide] it was 7.03.
With `Cc1cc(Oc2ccccc2)ccc1N1C(=O)Nc2c(C(=O)N[C@H]3CC[C@@H](N(C)C)CC3)sc3nccc1c23` [Example 100, N-((1S,4S)-4-(Dimethylamino)cyclohexyl)-5-(*R)-(2-methyl-4-phenoxyphenyl)-4-oxo-4,5-dihydro-3H-1-thia-3,5,8-triazaacenaphthylene-2-carboxamide], the “BTK_I_binding pIC50” value turned out to be 5.86.
Regarding `C=CC(=O)N[C@H]1CCC[C@H]1NC(=O)c1sc2nccc3c2c1NC(=O)N3c1ccc(Oc2ccccc2)cc1` [Example 104, N-((1R,2S)-2-acrylamidocyclopentyl)-4-oxo-5-(4-phenoxyphenyl)-4,5-dihydro-3H-1-thia-3,5,8-triazaacenaphthylene-2-carboxamide], the “BTK_I_binding pIC50” value came out at 8.37.
In the case of `C=CC(=O)N[C@H]1CCCC[C@H]1NC(=O)c1sc2nccc3c2c1NC(=O)N3c1cccc(-c2ccccc2)c1` [Example 106, 5-([1,1′-Biphenyl]-3-yl)-N-((1R,2S)-2-acrylamidocyclohexyl)-4-oxo-4,5-dihydro-3H-1-thia-3,5,8-triazaacenaphthylene-2-carboxamide], the “BTK_I_binding pIC50” value is 8.06.

Staying with this assay, now noted: read-out: BTK_I_binding pIC50 (converted).
On to `Cc1cc(Oc2ccccc2)ccc1N1C(=O)Nc2c(C(=O)N[C@H]3CC[C@H](O)CC3)sc3nccc1c23` [Example 86, N-((1R,4R)-4-Hydroxycyclohexyl)-5-(*R)-(2-methyl-4-phenoxyphenyl)-4-oxo-4,5-dihydro-3H-1-thia-3,5,8-triazaacenaphthylene-2-carboxamide], for which the IC50 is 229 nM.
